In the oligonucleotide strings, read from the 5' end, every base follows the letter of its sugar. An asterisk marks phosphorothioate; unmarked linkages are phosphodiester. Other units and linkages are bracketed, terminal groups are in braces. A string of capitals states the bases alone. d = 2'-deoxy (DNA); m = 2'-O-methyl
Molecular target: T1, human TLR9 (Homo sapiens, UniProt Q9NR96)
T1 construct: HA; host or cells: 293XL-hTLR9-HA (HEK293)
T1 sequence (Q9NR96 26-1032): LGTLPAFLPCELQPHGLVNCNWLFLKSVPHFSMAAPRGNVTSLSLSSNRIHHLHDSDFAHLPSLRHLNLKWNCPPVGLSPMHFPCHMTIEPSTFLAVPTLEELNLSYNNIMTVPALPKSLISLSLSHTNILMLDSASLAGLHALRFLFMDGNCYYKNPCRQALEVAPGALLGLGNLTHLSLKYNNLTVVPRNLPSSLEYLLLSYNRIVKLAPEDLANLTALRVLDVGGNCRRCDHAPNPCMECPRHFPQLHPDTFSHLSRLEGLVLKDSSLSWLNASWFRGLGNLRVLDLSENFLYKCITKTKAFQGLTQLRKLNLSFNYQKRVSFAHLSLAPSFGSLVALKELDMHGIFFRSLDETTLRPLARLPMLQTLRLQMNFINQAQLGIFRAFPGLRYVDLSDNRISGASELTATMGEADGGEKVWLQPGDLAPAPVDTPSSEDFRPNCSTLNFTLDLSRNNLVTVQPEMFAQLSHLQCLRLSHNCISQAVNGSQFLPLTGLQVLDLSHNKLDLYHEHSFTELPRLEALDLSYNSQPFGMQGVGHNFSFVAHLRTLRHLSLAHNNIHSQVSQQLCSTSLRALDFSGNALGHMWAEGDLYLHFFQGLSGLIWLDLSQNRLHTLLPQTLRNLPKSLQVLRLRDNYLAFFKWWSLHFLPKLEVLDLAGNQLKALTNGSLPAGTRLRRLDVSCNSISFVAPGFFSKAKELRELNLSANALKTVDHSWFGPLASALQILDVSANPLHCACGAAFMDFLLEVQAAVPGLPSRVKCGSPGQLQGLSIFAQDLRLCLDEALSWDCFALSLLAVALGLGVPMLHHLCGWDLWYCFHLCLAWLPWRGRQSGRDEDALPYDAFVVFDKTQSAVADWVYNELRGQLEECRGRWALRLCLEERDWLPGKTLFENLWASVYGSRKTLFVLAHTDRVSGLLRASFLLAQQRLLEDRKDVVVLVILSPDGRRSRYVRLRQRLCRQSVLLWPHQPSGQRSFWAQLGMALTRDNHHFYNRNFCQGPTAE
Assay: HEK-TLR9 NF-κB-luciferase reporter, ODN2006 stimulation
Type: cell-based
Conditions: for TLR9 100 nM (averaged NF-κB-Luciferase level relative to ODN2006 condition): ASO 100 nM; for TLR9 100 nM (averaged NF-κB-Luciferase level relative to ODN2006 condition) / TLR9 500 nM (averaged NF-κB-Luciferase level relative to ODN2006 condition): relative to ODN2006 only, given as fraction; for TLR9 500 nM (averaged NF-κB-Luciferase level relative to ODN2006 condition): ASO 500 nM; for TLR9-500 nM: averaged NF-κB-Luciferase relative to ODN2006 / inhibition of TLR9 sensing of ODN2006 (in words): HEK-TLR9; for TLR9-500 nM: averaged NF-κB-Luciferase relative to ODN2006: 500 nM ASO 45 min, then 200 nM ODN2006 overnight, percentage of ODN2006 only; for inhibition of TLR9 sensing of ODN2006 (in words): 500 nM 2′OMe or PS oligos, 200 nM ODN2006

| Substance | TLR9 100 nM (averaged NF-κB-Luciferase level relative to ODN2006 condition) | TLR9 500 nM (averaged NF-κB-Luciferase level relative to ODN2006 condition) | TLR9-500 nM: averaged NF-κB-Luciferase relative to ODN2006 | inhibition of TLR9 sensing of ODN2006 (in words) | inhibition of TLR9 sensing of ODN2006 (in words) (listed as ASO2139) |
| --- | --- | --- | --- | --- | --- |
| TGACTGTCTTGAGGGT (antisense; LNA-modified, pattern not given here) [MB21D1-1483 LNA KL] | 1.245 | 0.290 | – | – | – |
| GTCTTCATCGGCCCTG (antisense; LNA-modified, pattern not given here) [CAMSAP1-2113 LNA V1] | 0.797 | 0.617 | – | – | – |
| GAAAGGTTATGCAAGG (antisense; LNA-modified, pattern not given here) [CTNN2B-916 LNA KL] | 0.748 | 0.606 | – | – | – |
| ATCTGGCAGCCCATCA (antisense; LNA-modified, pattern not given here) [CTNN2B-2516 LNA V1] | 1.248 | 0.603 | – | – | – |
| CCTTGCACGTGGCTTC (antisense; LNA-modified, pattern not given here) [EGFR-1013 LNA V1] | 0.814 | 0.519 | – | – | – |
| CGCTTTTCTGTCTGGT (antisense; LNA-modified, pattern not given here) [CTNN2B-311 LNA KL] | 0.827 | 0.178 | – | – | – |
| TGTCCTTGCACGTGGC (antisense; LNA-modified, pattern not given here) [EGFR-1016 LNA V1] | 1.020 | 0.853 | – | – | – |
| GCACACTTCGTACCCA (antisense; LNA-modified, pattern not given here) [CAMSAP1-4915 LNA V1] | 0.683 | 0.147 | – | – | – |
| mU*mA*mU*mU*mU*C*C*A*C*A*T*G*C*C*C*mA*mG*mU*mG*mU (mU*mA*mU*mU*mU*dC*dC*dA*dC*dA*dT*dG*dC*dC*dC*mA*mG*mU*mG*mU; antisense) [[CDKN2B-AS1]627] | – | – | 71.20% | – | – |
| mG*mC*mA*mG*mU*C*T*C*C*A*T*G*T*C*C*mC*mA*mG*mG*mC (GCAGUCTCCATGTCCCAGGC; antisense; sugars from the 5' end m5 d10 m5, all phosphorothioate, methylation of C not given here) [[CDKN2B-AS1]2234] | – | – | 90.04% | did not inhibit TLR9 | – |
| TCTTCATCGGCCCTGC (antisense; LNA-modified, pattern not given here) [CAMSAP1-2112 LNA V1] | 0.921 | 0.445 | – | – | – |
| mG*mU*mG*mU*mC*C*T*T*C*A*T*G*C*T*T*mU*mG*mG*mA*mU (GUGUCCTTCATGCTTUGGAU; antisense; sugars from the 5' end m5 d10 m5, all phosphorothioate, methylation of C not given here) [[CDKN2B-AS1]1415] | – | – | 98.99% | – | – |
| TTCAGGCGCTGCCTTG (antisense; LNA-modified, pattern not given here) [CAMSAP1-2709 LNA V1] | 1.202 | 0.494 | – | – | – |
| AGGACTCCAGATGTTT (antisense; LNA-modified, pattern not given here) [HPRT LNA pos cont] | 0.816 | 0.511 | – | – | – |
| CGTATTATAGCCGATT (antisense; LNA-modified, pattern not given here) [NC1 LNA PS 3-10-3] | 0.933 | 0.558 | – | – | – |
| GTCAAGGGCATATCCT (antisense; LNA-modified, pattern not given here) [HPRT LNA-732 KL] | 0.844 | 0.387 | – | – | – |
| mC*mU*mU*mG*mU*G*A*A*A*A*G*A*T*T*A*mU*mC*mU*mU*mC (mC*mU*mU*mG*mU*dG*dA*dA*dA*dA*dG*dA*dT*dT*dA*mU*mC*mU*mU*mC) [[CDKN2B-AS1]2139] | – | – | 34.91% | strongly inhibited TLR9 | significantly increased TLR9 inhibition |
| CGGCCTCGGAAGCTCT (antisense; LNA-modified, pattern not given here) [MB21D1-168 LNA V1] | 0.218 | 0.116 | – | – | – |
| TGACAAAGATTCACTG (antisense; LNA-modified, pattern not given here) [HPRT LNA-1353 KL] | 0.819 | 0.574 | – | – | – |
| CTTGAAGCATCGTATC (antisense; LNA-modified, pattern not given here) [CTNN2B-3648 LNA KL] | 0.899 | 0.483 | – | – | – |
| ATGTGATGGCCTCCCA (antisense; LNA-modified, pattern not given here) [HPRT LNA-335 V1] | 0.776 | 0.451 | – | – | – |
| GTCTCTGGAGCTTCCT (antisense; LNA-modified, pattern not given here) [CAMSAP1-2456 LNA V1] | 0.935 | 0.272 | – | – | – |
| GATGGCCTCCCATCTC (antisense; LNA-modified, pattern not given here) [HPRT LNA-331 V1] | 1.033 | 0.476 | – | – | – |
| TCCGCCCAAAGGGAAC (antisense; LNA-modified, pattern not given here) [HPRT LNA-1027 KL] | 0.876 | 0.599 | – | – | – |
| GTGATGGCCTCCCATC (antisense; LNA-modified, pattern not given here) [HPRT LNA-333 V1] | 0.890 | 0.694 | – | – | – |
| GTCCTTGCACGTGGCT (antisense; LNA-modified, pattern not given here) [EGFR-1015 LNA V1] | 1.310 | 0.722 | – | – | – |
| GGTCATTACAATAGCT (antisense; LNA-modified, pattern not given here) [HPRT LNA-475 KL] | 0.438 | 0.604 | – | – | – |
| CATCCACCACGTCGTC (antisense; LNA-modified, pattern not given here) [EGFR-3266 LNA V1] | 0.722 | 0.620 | – | – | – |

Source: patent publication US20240384268A1, “Oligonucleotides” (Hudson Institute of Medical Research, priority 2021, published 2024)
